Experimental data published in patent EP1182931B1, “STABLE BIOCIDAL COMPOSITIONS” (NUFARM LIMITED, priority 1999, dated 2000).

Assays:
[1] = test system: gastrointestinal roundworm; test: Sheep trial CO52: faecal egg count reduction; type: in vivo; settings: lambs, oral, six days after treatment, versus untreated controls, arithmetic mean
Protocol: An anthelmintic drench trial was conducted on a sheep farm in North Auckland, New Zealand using 67 Romney and Romney cross suffock lambs (18-35kg bodyweight) of mixed sex.
The 67 lambs were randomly allocated by egg count into 4 groups of 10 lambs (Groups A, B, C, D) and 3 groups of 9 lambs (Groups E, F, G). The 3 groups of 9 lambs (E, F G) were drenched with a commercial formulation from one of the three broad spectrum anthelmintic drench families consisting of albendazole, a member of the benzimidazole or white drenches (Group E), levamisole, a member of the imidazothiazole / tetrahydropyrimidazole or clear drenches (Group F) and Ivermectin, a member of the macrocyclic lactones (Group G). Of the 4 remaining groups, Group A remained as untreated controls, Group B received the unmineralised test product (formulation 00-27C) containing all 3 actives (albendazole, levamisole, ivermectin), Group C received the same basic formulation but with the addition of selenium as the sodium selenate (formulation 00-27B) and Group D received the same basic formulation but with the addition of both selenium and cobalt with cobalt given as the cobalt chelate (formulation 00-27A) - See Table 27.
All animals were weighed and dosed by syringe to the nearest 0.1ml with the appropriate product for that group. Six days after oral treatment the animals were slaughtered and faecal samples were collected at slaughter.

[2] = test system: Trichostrongylus; test: Trial C0040 sheep roundworm and tapeworm trial: worm count; type: in vivo; settings: lambs, oral, slaughter Day 7 and Day 8
Protocol: (§1) Fifty three pasture fed 6-8 month old Romney lambs from the southern North Island, New Zealand that were naturally infected with tapeworms, were orally dosed with three times the standard dose of ivermectin (3 x 0.2 = 0.6mg/kg liveweight) to remove their naturally acquired roundworm infection while leaving their tapeworm burden. The animals were then housed indoors on slats to prevent natural reinfections with roundworms and each lamb was orally dosed daily for 5 days with a similar mixture of 5,000 roundworm larvae (total 25,000 larvae) consisting primarily of Haemonchus, Trichostrongylus, Ostertagia and Nematodirus. The larvae originated from four New Zealand sheep farms, three of which had evidence of resistance to one or more drench families. Lambs were injected with 0.5mL of a corticosteroid (opticortenol) two days prior to artificial oral larval infection. This was done to assist establishment of the worm larvae. 25 days after infection the animals were restrictively allocated to groups by bodyweight and also the presence of tapeworm infection, to one of seven treatment groups (Groups A-G). Four treatment groups (the untreated control and test products Groups A-D) had 8 animals per group, and three groups (E-G) contained 7 animals per group. The groups with 7 animals per group (E, F, G) were orally dosed with a single standard commercial product. All animals were slaughtered at Day 7 and Day 8 after treatment and total numbers of gastrointestinal roundworms and tapeworms counted.

[3] = test system: Nematodirus; test: as above; type: in vivo; settings: lambs, oral, slaughter Day 7 and Day 8
Protocol: as §1

[4] = test system: Ostertagia; test: as above; type: in vivo; settings: lambs, oral, slaughter Day 7 and Day 8
Protocol: as §1

[5] = test system: Haemonchus; test: as above; type: in vivo; settings: lambs, oral, slaughter Day 7 and Day 8, arithmetic means
Protocol: as §1

[6] = test system: Moniezia; test: Trial C0040 sheep roundworm and tapeworm trial: tapeworm count; type: in vivo; settings: lambs, oral, slaughter Day 7 and Day 8
Protocol: as §1, with “The groups with 7 animals per group (E, F, G) were orally dosed with a single standard commercial product.” left out

[7] = test system: Protozoa; settings: Spectrum of Activity; cited from earlier work
[8] = test system: Gastrointestinal Worms; settings: Spectrum of Activity; cited from earlier work

Row | Compound | reductions in egg count [1] [%] | reduction of Nematodirus in the small intestine [3] [%] | removal of worm numbers, Ostertagia [4] [%] | Nematodes Gastrointestinal Worms [8] | further results
1 | CCCSc1ccc2nc(NC(=O)OC)[nH]c2c1 [Albendazole] | 63 | 59 | 64 | – | efficacy against Trichostrongylus in the small intestine [2]: 80%; reduction in worm numbers, Haemonchus [5]: 93%; effect on tapeworm Moniezia [6]: slight trend to less Moniezia volume; Protozoa [7]: +(Giardia)
2 | Cc1cc(C(C#N)c2ccc(Cl)cc2)c(Cl)cc1NC(=O)c1cc(I)cc(I)c1O (stereo not drawn) [Closantel] | – | – | – | +(Haemonchus) | –
3 | COC(=O)Nc1nc2cc(Sc3ccccc3)ccc2[nH]1 [Fendendazole] | – | – | – | – | Protozoa [7]: +(Giardia)
4 | c1ccc([C@H]2CN3CCSC3=N2)cc1 [Levamisole] | 22 | 99 | 96 | – | –
5 | N#Cc1cc(I)c(O)c([N+](=O)[O-])c1 [Nitroxyinil] | – | – | – | +(Haemonchus) | –
6 | O=C(Nc1cc(Cl)cc(Cl)c1O)c1c(O)c(Cl)cc(Cl)c1Cl [Oxydosanide] | – | – | – | +(Haemonchus) | –
7 | O=C(Nc1ccc(Oc2ccc(Cl)cc2)c(Cl)c1)c1cc(I)cc(I)c1O [Rafoxamide] | – | – | – | +(Haemonchus) | –
8 | Ivermectin | 79 | 100 | 54 | – | –
